Assays:
[1] = PK study in rats, cassette dosing of deuterated and non-deuterated analog; assay type: in vivo; details: rat; 5 mg/kg; oral gavage or via catheter; % change vs. non-deuterated material
Description: (§1) The key PK parameters (presented as a % change vs. non-deuterated materials) are presented in Table 3 to include half-life (T1/2), area under the curve (AUC), bioavailability (F) and blood-to-plasma ration (BPR). Pharmacokinetics of the deuterated tryptamines was studied in rats. In a typical experiment, run as a cassette dosing, two groups of 5 Wistar female rats (200-250 g) with surgically inserted jugular vein catheter (Charles River, Andover, MA) were fasted for 12 h and then administered 5 mg/kg of the deuterated and 5 mg/kg of the related non-deuterated analog, by oral gavage or via a catheter for each group. At time points 0, 15, 30, 60 min, and 2, 4, 8, and 24 h, the resulting plasma was analyzed for the parent molecule using LC/MS spectroscopy. Two separate groups of 5 animals were used for determining blood-to-plasma ratio (BPR). Each group was sacrificed at time points 15 and 30 min, respectively, and the concentration of the parent drug was determined in the brain and plasma by LC/MS spectroscopy.

[2] = BPR: parent drug in brain and plasma of rats; assay type: in vivo; details: rat, % change vs. non-deuterated material
Description: as §1

hrMAO-A = target: T1, hrMAO-A (Homo sapiens, UniProt P21397); assay: Metabolic stability in the presence of hrMAO-A; assay type: in vitro ADME; details: MAO-A; for MAO, % (half-life as % vs. the related nondeuterated compound): values in square brackets are within 10% difference (assay's accuracy), no deuteration effect; for MAO (metabolized or not): last assay time point 120 min
T1 construct: purchased XenoTech Lot #8213001
T1 sequence (P21397 1-527): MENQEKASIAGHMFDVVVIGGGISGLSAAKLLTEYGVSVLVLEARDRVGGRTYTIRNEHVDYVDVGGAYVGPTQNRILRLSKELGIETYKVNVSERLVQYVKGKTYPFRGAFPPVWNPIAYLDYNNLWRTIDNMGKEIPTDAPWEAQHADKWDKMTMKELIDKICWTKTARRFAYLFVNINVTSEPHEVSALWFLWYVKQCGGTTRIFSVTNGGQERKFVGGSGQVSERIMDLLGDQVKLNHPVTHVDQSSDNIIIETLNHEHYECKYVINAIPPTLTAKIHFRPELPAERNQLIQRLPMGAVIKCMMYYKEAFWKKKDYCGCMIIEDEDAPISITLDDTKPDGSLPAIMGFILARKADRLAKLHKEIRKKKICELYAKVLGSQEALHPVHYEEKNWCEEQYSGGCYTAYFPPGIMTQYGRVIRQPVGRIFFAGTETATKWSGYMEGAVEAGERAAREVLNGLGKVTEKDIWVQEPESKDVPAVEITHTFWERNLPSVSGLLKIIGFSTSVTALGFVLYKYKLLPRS
Description: The reaction mixture was prepared as described below. The co-dosed TAs were added into the reaction mixture at a final concentration of 1 microM each. The positive control, kynuramine (25 microM), was run simultaneously with the TAs in a separate reaction. The reaction mixture (without TAs or kynuramine) was equilibrated in a shaking water bath at 37° C. for 5 minutes. The reaction was initiated by the addition of the TAs or kynuramine, and the mixture was incubated in a shaking water bath at 37° C. Aliquots (100 microL) of the TA reaction mixture were withdrawn at 0, 5, 10, 20, 30, 60, and 120 minutes. Aliquots (100 microL) of the positive control reaction mixture were withdrawn at 0 and 30 minutes. TA and kynuramine samples were immediately combined with 100 microL of ice-cold 100% MeCN containing 0.1% formic acid and IS to terminate the reaction. The samples were then mixed and centrifuged to precipitate proteins. All TA samples were assayed by LC-HRAMS. The PARR (analyte to IS) at each time point was compared to the PARR at time 0 to determine the percent remaining at each time point. Reaction composition: hrMAO 0.02 mg/mL; Potassium Phosphate, pH 7.4 100 mM; Magnesium Chloride 5 mM; Test Articles (each) 1 microM.

rat liver microsomes = assay: Metabolic stability in rat liver microsomes (RLM); details: for RLM, % (half-life as % vs. the related nondeuterated compound): values in square brackets are within 10% difference (assay's accuracy), no deuteration effect; for RLM (metabolized or not): last assay time point 120 min
[3] = oral, cited from earlier work

Compound | MAO, % (half-life as % vs. the related nondeuterated compound) (hrMAO-A) | RLM, % (half-life as % vs. the related nondeuterated compound) (rat liver microsomes) | MAO (metabolized or not) (hrMAO-A) | RLM (metabolized or not) (rat liver microsomes) | other results
[2H]C([2H])(Cc1c[nH]c2cccc(O)c12)N(C)C [PI-α,α-d2] | – | – | – | – | Deuterium Kinetic Isotope Effect (% change), AUC [1]: 75%; Deuterium Kinetic Isotope Effect (% change), T1/2 [1]: 50%; Deuterium Kinetic Isotope Effect (% change), BPR, 15 min [2]: 100%; Deuterium Kinetic Isotope Effect (% change), BPR, 30 min [2]: 150%
[2H]C([2H])(Cc1c[nH]c2ccc(OC)cc12)N(C)C [5-MeO-DMT-α,α-d2] | 227% | 185% | – | – | Deuterium Kinetic Isotope Effect (% change), AUC [1]: 60%; Deuterium Kinetic Isotope Effect (% change), T1/2 [1]: 30%; Deuterium Kinetic Isotope Effect (% change), BPR, 15 min [2]: 120%; Deuterium Kinetic Isotope Effect (% change), BPR, 30 min [2]: 180%; collective kinetic deuterium isotope effect (reaction rate decrease for deuterated vs. non-deuterated molecule) (rat liver microsomes; rat liver microsomes, 0 to 60 min, disappearance of parent peak): 150-200%
[2H]C([2H])(c1c[nH]c2ccc(OC)cc12)C([2H])([2H])N(C)C | 229% | 184% | – | – | –
[2H]C([2H])(NC)C([2H])([2H])c1c[nH]c2ccccc12 | 622% | 189% | – | – | –
[2H]C([2H])([2H])Oc1ccc2[nH]cc(C([2H])([2H])C([2H])([2H])N(C([2H])([2H])[2H])C([2H])([2H])[2H])c2c1 | 372% | 299% | – | – | –
CCN(C)CCc1c[nH]c2ccc(OC)cc12 [reference compound] | – | – | R | R | –
[2H]C([2H])([2H])NC([2H])([2H])C([2H])([2H])c1c[nH]c2ccccc12 | 711% | 214% | – | – | –
[2H]c1[nH]c2c([2H])c([2H])c([2H])c([2H])c2c1CCN(C)C | [103] % | [106] % | – | – | –
[2H]C([2H])(c1c[nH]c2cccc(OC)c12)C([2H])([2H])N(C)C | 325% | 190% | – | – | –
CNCCc1c[nH]c2ccccc12 [reference compound] | – | – | R | R | –
COc1cccc2[nH]cc(CCN(C)C)c12 [reference compound] | – | – | R | R | –
[2H]C([2H])([2H])NC([2H])([2H])C([2H])([2H])c1c[nH]c2cccc(O)c12 | 459% | 173% | – | – | –
COc1cc(CCNCc2ccccc2OC)c(OC)cc1Cl [2C—C—NBOMe, 2-(4-Chloro-2,5-dimethoxyphenyl)-N-[(2-methoxyphenyl)methyl]ethan-1-amine] | – | – | – | – | very strong psychedelic doses [3]: 500 to 700 µg; orally active dose ([3]; doses as low as): ≥ 25 µg
[2H]C([2H])([2H])Oc1ccc2[nH]cc(CCN(C)C)c2c1 | [109] % | 151% | – | – | –
[2H]C([2H])(Cc1c[nH]c2ccc(OC)cc12)N(C)CC | 126% | 117% | – | – | –
[2H]c1[nH]c2c([2H])c([2H])c([2H])c([2H])c2c1C([2H])([2H])C([2H])([2H])N(C)C | 551% | 243% | – | – | –
CCNCCc1c[nH]c2ccccc12 [reference compound] | – | – | R | R | –
CCN(C)CCc1c[nH]c2ccc(O)cc12 [reference compound] | – | – | R | R | –
CCN(C)CCc1c[nH]c2cccc(OC)c12 [reference compound] | – | – | R | R | –

Reference: patent US12240813B2, “Deuterated tryptamine derivatives and methods of use” (priority 2020, dated 2025)
